Laboratory results: publication PMC8119466, “A screen of FDA-approved drugs identifies inhibitors of protein tyrosine phosphatase 4A3 (PTP4A3 or PRL-3)” (Scientific Reports, 2021)
Structures can show the parent of a compound that is named as a salt. Where two headings read alike, the source gives them in different places.

Assays:
Format in all cases: biochemical
recombinant PRL-3 = target: T1, recombinant PRL-3 (Homo sapiens, UniProt O75365); assay: In vitro phosphatase assay (DiFMUP hydrolysis), PRL-3; note: test concentration or dose not given here
T1 construct: 6xHis (N, cleaved yes); made in house; host or cells: E. coli One Shot BL21 Star
T1 sequence (O75365 whole entry): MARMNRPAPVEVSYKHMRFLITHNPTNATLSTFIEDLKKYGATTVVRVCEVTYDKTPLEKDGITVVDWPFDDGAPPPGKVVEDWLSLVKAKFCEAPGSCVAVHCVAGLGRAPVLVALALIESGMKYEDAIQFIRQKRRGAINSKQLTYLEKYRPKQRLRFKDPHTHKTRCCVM

recombinant PRL-1 = target: T2, recombinant PRL-1 (Homo sapiens, UniProt Q93096); assay: In vitro phosphatase assay (DiFMUP hydrolysis), PRL-1; note: test concentration or dose not given here
T2 construct: 6xHis (N, cleaved yes); made in house; host or cells: E. coli One Shot BL21 Star
T2 sequence (Q93096 1-173): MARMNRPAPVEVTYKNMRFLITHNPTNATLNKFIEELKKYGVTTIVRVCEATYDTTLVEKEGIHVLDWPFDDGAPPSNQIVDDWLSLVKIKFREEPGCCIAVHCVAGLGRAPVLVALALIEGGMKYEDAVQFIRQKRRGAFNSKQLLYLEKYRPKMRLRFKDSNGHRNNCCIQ

recombinant PRL-2 = target: T3, recombinant PRL-2 (Homo sapiens, UniProt Q12974); assay: In vitro phosphatase assay (DiFMUP hydrolysis), PRL-2;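 note: PRL-2 activity read as DiFMUP hydrolysis after 20 min at room temperature with drug, enzyme first pre-reduced at 4 °C for 20 min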
T3 construct: 6xHis (N, cleaved yes); made in house; host or cells: E. coli One Shot BL21 Star
T3 sequence (Q12974 1-167): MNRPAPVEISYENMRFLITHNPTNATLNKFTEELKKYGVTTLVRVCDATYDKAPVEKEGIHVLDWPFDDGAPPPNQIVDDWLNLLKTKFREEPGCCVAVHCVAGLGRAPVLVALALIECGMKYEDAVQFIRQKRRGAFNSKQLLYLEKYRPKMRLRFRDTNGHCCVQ

[1] = FDA-approved drug screen, compared to DMSO

Structure (SMILES)	% Phosphatase Activity (compared to DMSO) PRL-3 (recombinant PRL-3; [1]) [%]	% Phosphatase Activity (compared to DMSO) PRL-1 (recombinant PRL-1; [1]) [%]	% Phosphatase Activity (compared to DMSO) PRL-2 (recombinant PRL-2; [1]) [%]	% Phosphatase Activity (compared to DMSO) PRL-3 (recombinant PRL-3) [%]	% Phosphatase Activity (compared to DMSO) PRL-1 (recombinant PRL-1) [%]	% Phosphatase Activity (compared to DMSO) PRL-2 (recombinant PRL-2) [%]
O=C(c1ccc(F)c(F)c1Nc1ccc(I)cc1F)N1CC(O)([C@@H]2CCCCN2)C1 [Cobimetinib (GDC-0973, RG7420)]	95	95	97	–	–	–
Cc1nc2c([nH]1)-c1ccccc1N(C(=O)c1ccc(NC(=O)c3ccccc3-c3ccccc3)cc1)CC2.Cl [Conivaptan HCl]	85	95	106	–	–	–
CC(=O)OCC(=O)[C@@]1(O)CC[C@H]2[C@@H]3CCC4=CC(=O)CC[C@]4(C)[C@H]3C(=O)C[C@@]21C [Cortisone acetate]	78	98	94	–	–	–
O=c1ccc2ccccc2o1 [Coumarin]	76	92	98	–	–	–
CC1(COc2ccc3c(c2)ncn3-c2ccc3cccc(N4CCC(N)CC4)c3n2)COC1 [Crenolanib (CP-868596)]	105	117	115	–	–	–
CN(C)c1ccc(C(=C2C=CC(=[N+](C)C)C=C2)c2ccc(N(C)C)cc2)cc1 [Crystal Violet]	85	79	86	–	–	–
COc1cc(/C=C/C(=O)CC(=O)/C=C/c2ccc(O)c(OC)c2)ccc1O [Curcumin]	85	78	77	–	–	–
CC1CC(OC(=O)C(O)c2ccccc2)CC(C)(C)C1 (stereo not drawn) [Cyclandelate]	74	82	84	–	–	–
CN1CCN(C(c2ccccc2)c2ccccc2)CC1.Cl.Cl [Cyclizine 2HCl]	69	94	116	–	–	–
CN(C)CCC=C1c2ccccc2C=Cc2ccccc21 [Cyclobenzaprine HCl]	–	–	–	85	104	103
O=P1(N(CCCl)CCCl)NCCCO1 (stereo not drawn) [Cyclophosphamide Monohydrate]	–	–	–	94	90	105
CN1CCC(=C2c3ccccc3C=Cc3ccccc32)CC1 [Cyproheptadine hydrochloride]	84	93	102	–	–	–
CC(=O)O[C@]1(C(C)=O)CC[C@H]2[C@@H]3C=C(Cl)C4=CC(=O)[C@@H]5C[C@@H]5[C@]4(C)[C@H]3CC[C@@]21C [Cyproterone Acetate]	99	92	91	–	–	–
Nc1nc(N)nc(NC2CC2)n1 [Cyromazine]	78	90	101	–	–	–
Cl.NCCS [Cysteamine HCl]	70	91	79	–	–	–
Nc1ccn([C@@H]2O[C@H](CO)[C@@H](O)[C@@H]2O)c(=O)n1 [Cytarabine]	91	104	86	–	–	–
CC(C)(CO)[C@@H](O)C(=O)NCCCO [D panthenol]	90	93	80	–	–	–
